The test system of test [1] is HIV-1 (strain IIIB). In words: microbe, parasite or virus in culture. Format: cell-based. To be noted: lower line of each compound's entry, read-out: IC50 (MT-4 cells).
The target in test [2] is HIV-1 protease (Human immunodeficiency virus type 1 group M subtype B, UniProt P04585). In words: biochemical. The settings on record: HIV-1 protease; upper line of each compound's entry; read-out: Ki (enzyme).
Setting [3] is: Human immunodeficiency virus 1, 120 h, MT4 cells infected with HIV-1 strain IIIB, 5 days.

We go through 16 compounds from US20040097594A1 (priority 1998, published 2004).

The IC50 is the concentration at which inhibition is half-maximal. As usually defined, the Ki is the equilibrium dissociation constant of an inhibitor or competing ligand from its target.

Like-named read-outs stand apart in the source and are kept apart here.

With `COc1ccc(S(=O)(=O)N(C[C@@H](O)[C@H](Cc2ccccc2)NC(=O)OC2COCOC2)OC2CCOCC2)cc1` [Compound 74, 1,3-dioxan-5-yl N-(1S,2R)-1-benzyl-2-hydroxy-3-[[(4-methoxyphenyl)sulfonyl](tetrahydro-2H-pyran-4-yloxy)amino]propylcarbamate], the concentration for half-maximal inhibition (IC50) in test [1] (setting [3]) was ≤ 100 nM. The Ki in test [2] was < 1 nM.
On to `COc1ccc(S(=O)(=O)N(C[C@@H](O)[C@H](Cc2ccccc2)NC(=O)c2cccc(O)c2C)OC2CCOCC2)cc1` [Compound 75, N-(1S,2R)-1-benzyl-2-hydroxy-3-[[(4-methoxyphenyl)sulfonyl](tetrahydro-2H-pyran-4-yloxy)amino]propyl-3-hydroxy-2-methylbenzamide], for which the half-inhibitory concentration (IC50) in test [1] (setting [3]) is > 500 nM. Further, the Ki in test [2] was < 1 nM.
With `COc1ccc(S(=O)(=O)N(C[C@@H](O)[C@H](Cc2ccccc2)NC(=O)[C@H](CC(N)=O)NC(=O)c2ccc3ccccc3n2)OC2CCOCC2)cc1` [Compound 76, (2S)-N-(1S,2R)-1-benzyl-2-hydroxy-3-[[(4-methoxyphenyl)sulfonyl](tetrahydro-2H-pyran-4-yloxy)amino]propyl-2-[(2-quinolinylcarbonyl)amino]butanediamide], the IC50 in test [1] (Human immunodeficiency virus 1, IIIB, MT4, 120 h, […]) was in the range of 100 to 500 nM. In addition, in test [2], the Ki was < 1 nM.
`NCCNc1cccc(S(=O)(=O)N(CC(O)C(Cc2ccccc2)NC(=O)OC2COC3OCCC23)OC2CCCC2)c1` [Compound 83, (3R,3aS,6aR)hexahydrofuro[2,3-b]furan-3-yl N-(1S,2R)-3-[(3[(2-aminoethyl)amino]phenylsulfonyl)(cyclopentyloxy)amino]-1-benzyl-2-hydroxypropylcarbamate and (3S,3aR,6aS)hexahydrofuro[2,3-b]furan-3-yl N-(1S,2R)-3-[(3[(2-aminoethyl)amino]phenylsulfonyl)(cyclopentyloxy)amino]-1-benzyl-2-hydroxypropylcarbamate]: in test [1] (setting [3]), the IC50 lay within 100 to 500 nM. Further, the Ki in test [2] was < 1 nM.
For `N#CCNc1cccc(S(=O)(=O)N(CC(O)C(Cc2ccccc2)NC(=O)OC2COC3OCCC23)OC2CCCC2)c1` [Compound 86, (3R,3aS,6aR)hexahydrofuro[2,3-b]furan-3-yl N-(1S,2R)-1-benzyl-3-[(3-[(cyanomethyl)amino]phenylsulfonyl)(cyclopentyloxy)amino]-2-hydroxypropylcarbamate and (3S,3aR,6aS)hexahydrofuro[2,3-b]furan-3-yl N-(1S,2R)-1-benzyl-3-[(3-[(cyanomethyl)amino]phenylsulfonyl)(cyclopentyloxy)amino]-2-hydroxypropylcarbamate] the same measures were ≤ 100 nM and < 1 nM.
As for `O=C(NC(Cc1ccccc1)C(O)CN(OC1CCCC1)S(=O)(=O)c1cccc(NCC(=O)N2CCOCC2)c1)OC1COC2OCCC12` [Compound 87, (3R,3aS,6aR)hexahydrofuro[2,3-b]furan-3-yl N-(1S,2R)-1-benzyl-3-[(cyclopentyloxy)(3-[(2-morpholino-2-oxoethyl)amino]phenylsulfonyl)amino]-2-hydroxypropylcarbamate and (3S,3aR,6aS)hexahydrofuro[2,3-b]furan-3-yl N-(1S,2R)-1-benzyl-3-[(cyclopentyloxy)(3-[(2-morpholino-2-oxoethyl)amino]phenylsulfonyl)amino]-2-hydroxypropylcarbamate], the half-maximal inhibitory concentration (IC50) in test [1] (setting [3]) is ≤ 100 nM. In addition, the Ki in test [2] is < 1 nM.
The matching figures for `O=C(N[C@@H](Cc1ccccc1)[C@H](O)CN(OC1CCCC1)S(=O)(=O)c1ccc2nccnc2c1)O[C@H]1CO[C@H]2OCC[C@H]21` [Compound 90]: ≤ 100 nM and < 1 nM.
The matching figures for `O=C(N[C@@H](Cc1ccccc1)[C@H](O)CN(OC1CCCC1)S(=O)(=O)c1cccc(OCCO)c1)O[C@H]1CO[C@H]2OCC[C@H]21` [Compound 97, (3R,3aS,6aR)hexahydrofuro[2,3-b]furan-3-yl N-[(1S,2R)-1-benzyl-3-((cyclopentyloxy) [3-(2-hydroxyethoxy)phenyl]sulfonylamino)-2-hydroxypropyl]carbamate]: ≤ 100 nM and < 1 nM.
The matching figures for `Nc1cccc(S(=O)(=O)N(C[C@@H](OP(=O)(O)O)[C@H](Cc2ccccc2)NC(=O)O[C@H]2CO[C@H]3OCC[C@H]32)OC2CCCC2)c1` [Compound 100, Phosphate ester of (3R,3aS,6aR)hexahydrofuro[2,3-b]furan-3-yl N-(1S,2R)-3-[[(3-aminophenyl)sulfonyl](cyclopentyloxy)amino]-1-benzyl-2-hydroxypropylcarbamate]: 100 to 500 nM and 10 to 100 nM.
Regarding `COC(=O)Nc1n[nH]c2ccc(S(=O)(=O)N(C[C@@H](O)[C@H](Cc3ccccc3)NC(=O)OC3COCOC3)OC3CCCC3)cc12` [Compound 104, 1,3-Dioxan-5-yl-N-(1S,2R)-1-benzyl-3-[(cyclopentyloxy)(3-(carbomethoxyamino)-indazole-5-ylsulfonyl)amino]-2-hydroxypropylcarbamate], in test [1] (setting [3]), the IC50 is ≤ 100 nM. Further, in test [2], the Ki is < 1 nM.
The matching figures for `CC(C)(C)OC(=O)N[C@@H](Cc1ccccc1)[C@H](O)CN(OC1CCCC1)S(=O)(=O)c1ccc2[nH]c(NC(=O)CCCl)nc2c1` [Compound 105, Tert-butyl N-(1S,2R)-1-benzyl-3-[(cyclopentyloxy)(2-[(3-chloropropionyl)amino]-1H-benzimidazol-5-ylsulfonyl)amino]-2-hydroxypropylcarbamate]: ≤ 100 nM and < 1 nM.
The matching figures for `CC(C)(C)OC(=O)N[C@@H](Cc1ccccc1)[C@H](O)CN(OC1CCCC1)S(=O)(=O)c1ccc2nc(N)[nH]c2c1` [Compound 106, Tert-butyl N-(1S,2R)-1-benzyl-3-[(cyclopentyloxy)(2-amino-1H-benzimidazol-5-ylsulfonyl)amino]-2-hydroxypropylcarbamate]: 100 to 500 nM and < 1 nM.
For `Nc1n[nH]c2ccc(S(=O)(=O)N(C[C@@H](O)[C@H](Cc3ccccc3)NC(=O)O[C@H]3CO[C@H]4OCC[C@H]43)OC3CCCC3)cc12` [Compound 108, (3R,3aS,6aR)Hexahydrofuro[2,3-b]furan-3-yl N-(1S,2R)-1-benzyl-3-[(cyclopentyloxy) (3-aminoindazole-5-ylsulfonyl)amino]-2-hydroxypropylcarbamate] the same measures were > 500 nM and 10 to 100 nM.
With `COCOc1ccc(S(=O)(=O)N(C[C@@H](O)[C@H](Cc2ccccc2)NC(=O)OC(C)(C)C)OC2CCCC2)cc1` [Compound 109, tert-butyl N-((1S,2R)-1-benzyl-3-(cyclopentyloxy)[(4-methoxymethoxyphenyl)sulfonyl]amino-2-hydroxypropyl)carbamate], in test [1] (setting [3]), the IC50 is ≥ 100 nM. Further, in test [2], the Ki lay in the range of 10 to 100 nM.
In the case of `CC(C)(C)ON(C[C@@H](O)[C@H](Cc1ccccc1)NC(=O)O[C@H]1CCOC1)S(=O)(=O)c1ccccc1` [Compound 111, (3S) Tetrahydro-3-furanyl-N-(1S,2R)-1-benzyl-3-(tertbutyloxy)[(phenyl)sulfonyl]amino-2-hydroxypropylcarbamate], in test [1] (setting [3]), the IC50 is > 1000 nM. In addition, the Ki in test [2] is 1 to 10 nM.
Regarding `CC(=O)Nc1nc2ccc(S(=O)(=O)N(C[C@@H](O)[C@H](Cc3ccccc3)NC(=O)OC3COCOC3)OC3CCCC3)cc2s1` [Compound 114], the half-maximal inhibitory concentration (IC50) in test [1] (setting [3]) was ≤ 100 nM. Moreover, the Ki in test [2] was < 1 nM.
